Measurements: patent publication US20140005163A1 (NOVARTIS AG, priority 2010, published 2014)
pIC50: −log10 of the molar value.

Experiments:
[1] = system: PKB Ser473 phosphorylation in Rat1-myr-HA-p110 alpha cells; test: Reverse protein array assay, PKB Ser473 phosphorylation in Rat1-myr-p110 alpha cells; type: cell-based; details: 0.5 h, pAkt Ser473, 30 minutes compound incubation, read-out: p-PKB IC50
Summary of the method: (§1)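 Compound exposure lasted 30 min in Rat1 cells bearing membrane-targeted HA-p110 isoforms, using 8 serial concentrations. Arrayed lysates, each spotted at four dilutions, gave relative fluorescence signals for phospho-Ser473 PKB.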

[2] = biological target: T1, PI3K delta (Homo sapiens, UniProt O00329); test: PI3K delta kinase assay (Kinase-Glo luminescence); type: biochemical
T1 construct: for the full-length p110-d subunit are generated and fused by overlapping PCR; p85(iSH2) fusion partner (see partner chain) (N); His tag (C); made in house; host or cells: baculovirus; Tn5 (Trichoplusia ni) or TiniPro insect cells
T1 sequence (O00329 with tags, fused parts or gaps limits assumed): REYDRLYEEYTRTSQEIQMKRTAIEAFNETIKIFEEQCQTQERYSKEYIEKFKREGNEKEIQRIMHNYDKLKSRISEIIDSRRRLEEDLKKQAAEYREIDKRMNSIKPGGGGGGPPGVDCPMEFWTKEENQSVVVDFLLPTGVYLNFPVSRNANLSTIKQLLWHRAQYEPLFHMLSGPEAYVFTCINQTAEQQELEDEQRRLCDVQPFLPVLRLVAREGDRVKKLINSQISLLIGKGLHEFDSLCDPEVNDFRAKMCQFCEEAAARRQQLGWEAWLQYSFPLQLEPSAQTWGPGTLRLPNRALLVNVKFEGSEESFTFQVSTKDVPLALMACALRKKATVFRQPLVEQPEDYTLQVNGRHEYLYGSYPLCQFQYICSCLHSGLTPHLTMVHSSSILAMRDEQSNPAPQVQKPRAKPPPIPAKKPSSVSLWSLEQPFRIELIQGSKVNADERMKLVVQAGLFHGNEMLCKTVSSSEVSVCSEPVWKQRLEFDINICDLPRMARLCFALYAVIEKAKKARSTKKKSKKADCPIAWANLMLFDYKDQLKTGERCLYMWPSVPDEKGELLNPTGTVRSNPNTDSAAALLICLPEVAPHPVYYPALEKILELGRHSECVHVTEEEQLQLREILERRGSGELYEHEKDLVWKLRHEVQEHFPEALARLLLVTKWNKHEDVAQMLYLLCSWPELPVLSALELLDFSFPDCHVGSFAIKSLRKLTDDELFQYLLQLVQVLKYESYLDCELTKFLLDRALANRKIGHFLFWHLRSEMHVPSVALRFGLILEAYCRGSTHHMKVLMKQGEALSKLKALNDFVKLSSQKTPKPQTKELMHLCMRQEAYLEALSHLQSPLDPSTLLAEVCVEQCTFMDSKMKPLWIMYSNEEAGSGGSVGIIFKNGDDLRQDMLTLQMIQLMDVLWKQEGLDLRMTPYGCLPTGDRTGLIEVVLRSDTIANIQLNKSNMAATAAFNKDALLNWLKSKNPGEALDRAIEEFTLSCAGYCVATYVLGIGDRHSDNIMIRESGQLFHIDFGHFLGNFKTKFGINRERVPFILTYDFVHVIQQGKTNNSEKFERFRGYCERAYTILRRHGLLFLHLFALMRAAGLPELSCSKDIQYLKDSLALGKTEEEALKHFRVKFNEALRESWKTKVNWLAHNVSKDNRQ
Summary of the method: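 Kinase-Glo luminescence read-out of ATP remaining after 60 min at RT. Enzyme: 10 nM BV1060 (p85 iSH2–p110δ fusion, His-tagged); substrate 10 μg/mL PI, ATP 1 μM final; Tris pH 7.5 buffer with MgCl2, NaCl, CHAPS, DTT. IC50 from 4-parameter logistic fit over 8 concentrations.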

[3] = system: PKB Ser473 phosphorylation in Rat1-myr-HA-p110 beta cells; test: Reverse protein array assay, PKB Ser473 phosphorylation in Rat1-myr-p110 beta cells; type: cell-based; details: 0.5 h, pAkt Ser473, 30 minutes incubation, read-out: p-PKB IC50
Summary of the method: as §1

[4] = biological target: T2, PI3K beta (Homo sapiens, UniProt P42338); test: PI3K beta kinase assay (Kinase-Glo luminescence); type: biochemical
T2 construct: for the full-length p110-b subunit are generated and fused by overlapping PCR; p85(iSH2) fusion partner (see partner chain) (N); His tag (C); made in house; host or cells: baculovirus; Tn5 (Trichoplusia ni) or TiniPro insect cells
T2 sequence (P42338 with tags, fused parts or gaps limits assumed): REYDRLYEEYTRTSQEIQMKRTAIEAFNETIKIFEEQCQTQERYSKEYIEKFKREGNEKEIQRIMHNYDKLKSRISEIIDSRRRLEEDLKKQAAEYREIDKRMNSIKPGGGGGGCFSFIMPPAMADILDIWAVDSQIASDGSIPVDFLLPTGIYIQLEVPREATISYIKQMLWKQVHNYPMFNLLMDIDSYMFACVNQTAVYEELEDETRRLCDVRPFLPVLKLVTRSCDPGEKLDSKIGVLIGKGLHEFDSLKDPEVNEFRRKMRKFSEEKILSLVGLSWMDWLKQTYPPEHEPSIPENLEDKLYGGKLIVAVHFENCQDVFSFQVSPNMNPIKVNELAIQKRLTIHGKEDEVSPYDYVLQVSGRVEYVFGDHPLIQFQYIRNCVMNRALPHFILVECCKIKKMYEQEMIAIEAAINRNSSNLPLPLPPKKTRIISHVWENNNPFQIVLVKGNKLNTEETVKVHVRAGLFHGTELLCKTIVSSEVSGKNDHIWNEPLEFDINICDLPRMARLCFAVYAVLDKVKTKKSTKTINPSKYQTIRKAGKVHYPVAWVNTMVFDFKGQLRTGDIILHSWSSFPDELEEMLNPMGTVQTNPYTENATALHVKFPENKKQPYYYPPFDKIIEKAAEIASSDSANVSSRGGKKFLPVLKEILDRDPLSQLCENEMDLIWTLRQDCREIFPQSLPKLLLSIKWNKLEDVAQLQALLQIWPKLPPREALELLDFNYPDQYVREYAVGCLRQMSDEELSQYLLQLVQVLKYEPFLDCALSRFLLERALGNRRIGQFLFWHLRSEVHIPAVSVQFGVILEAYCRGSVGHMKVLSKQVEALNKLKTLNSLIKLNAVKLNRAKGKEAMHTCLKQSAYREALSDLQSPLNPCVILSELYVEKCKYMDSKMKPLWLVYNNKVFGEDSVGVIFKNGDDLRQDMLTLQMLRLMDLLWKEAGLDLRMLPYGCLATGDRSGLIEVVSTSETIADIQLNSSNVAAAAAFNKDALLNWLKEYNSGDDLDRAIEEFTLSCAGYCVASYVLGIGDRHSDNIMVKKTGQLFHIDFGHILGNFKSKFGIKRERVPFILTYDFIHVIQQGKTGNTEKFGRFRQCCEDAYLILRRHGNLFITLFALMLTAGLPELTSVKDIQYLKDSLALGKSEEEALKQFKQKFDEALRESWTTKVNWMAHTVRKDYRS
Summary of the method: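 IC50 is derived by four-parameter logistic curve fitting of Kinase-Glo luminescence, which measures ATP left after a 60 min room-temperature reaction. Conditions are 25 nM His-tagged p85(iSH2)-p110β, 1 μM ATP and 10 μg/mL bovine liver phosphatidylinositol.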

[5] = biological target: T3, PI3K alpha (Homo sapiens, UniProt P42336); test: PI3K alpha kinase assay (Kinase-Glo luminescence); type: biochemical
T3 construct: p85(iSH2) fusion partner (see partner chain) (N); His tag (C); made in house; host or cells: baculovirus; Tn5 (Trichoplusia ni) or TiniPro insect cells
T3 sequence (P42336 with tags, fused parts or gaps limits assumed): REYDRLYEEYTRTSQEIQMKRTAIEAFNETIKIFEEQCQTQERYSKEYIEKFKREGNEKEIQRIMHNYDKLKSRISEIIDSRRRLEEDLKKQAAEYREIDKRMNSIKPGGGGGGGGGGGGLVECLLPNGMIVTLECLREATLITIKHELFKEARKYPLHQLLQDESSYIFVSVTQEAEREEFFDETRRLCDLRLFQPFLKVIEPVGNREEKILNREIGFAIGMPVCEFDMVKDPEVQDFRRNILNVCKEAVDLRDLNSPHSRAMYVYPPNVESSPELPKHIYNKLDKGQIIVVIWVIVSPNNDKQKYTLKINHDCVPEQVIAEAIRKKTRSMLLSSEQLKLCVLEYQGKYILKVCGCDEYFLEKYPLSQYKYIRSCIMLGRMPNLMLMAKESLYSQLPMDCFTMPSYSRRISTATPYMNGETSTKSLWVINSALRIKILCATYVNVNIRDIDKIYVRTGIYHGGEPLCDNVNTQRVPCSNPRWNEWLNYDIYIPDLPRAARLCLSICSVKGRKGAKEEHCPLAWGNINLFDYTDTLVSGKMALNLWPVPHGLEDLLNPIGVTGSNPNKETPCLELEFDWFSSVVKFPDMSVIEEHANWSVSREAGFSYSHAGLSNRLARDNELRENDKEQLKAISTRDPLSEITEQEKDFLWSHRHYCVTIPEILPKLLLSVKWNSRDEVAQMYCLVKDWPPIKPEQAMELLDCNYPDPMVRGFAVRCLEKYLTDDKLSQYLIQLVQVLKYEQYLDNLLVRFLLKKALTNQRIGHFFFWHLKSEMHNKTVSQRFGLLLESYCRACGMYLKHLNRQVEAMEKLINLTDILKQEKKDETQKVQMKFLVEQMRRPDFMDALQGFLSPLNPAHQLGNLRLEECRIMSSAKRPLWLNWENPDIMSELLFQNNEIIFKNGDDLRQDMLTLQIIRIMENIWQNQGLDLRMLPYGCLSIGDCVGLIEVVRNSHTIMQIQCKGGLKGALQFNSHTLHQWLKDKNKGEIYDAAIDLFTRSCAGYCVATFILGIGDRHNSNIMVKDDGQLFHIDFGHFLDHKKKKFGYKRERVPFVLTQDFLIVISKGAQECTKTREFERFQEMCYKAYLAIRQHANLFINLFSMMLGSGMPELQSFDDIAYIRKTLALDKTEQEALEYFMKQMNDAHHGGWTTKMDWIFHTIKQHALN
Summary of the method: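 Read-out: Kinase-Glo luminescence of ATP left after 60 min at room temperature. Conditions: 10 nM PI3Kα (EMV B1075), 1 μM ATP, 10 μg/mL PI substrate, Tris pH 7.5 buffer with MgCl2, NaCl, CHAPS and DTT. IC50s fitted with a four-parameter logistic model.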

| Compound | pIC50 [1] | pIC50 [2] | pIC50 [3] | pIC50 [4] | pIC50 [5] |
| --- | --- | --- | --- | --- | --- |
| Cc1nn(C)c(C)c1-n1c(=O)n(C)c2cnc3ccc(-c4cnc(N)c(C(F)(F)F)c4)cc3c21 [Example 25.3, 8-(6-Amino-5-trifluoromethyl-pyridin-3-yl)-3-methyl-1-(1,3,5-trimethyl-1H-pyrazol-4-yl)-1,3-dihydro-imidazo[4,5-c]quinolin-2-one] | 7.60 | 7.34 | 7.14 | 7.32 | 7.23 |
| Cc1nn(C(C)C)cc1-n1c(=O)n(C)c2cnc3ccc(-c4cnc(N)c(C(F)(F)F)c4)cc3c21 [Example 25.4, 8-(6-Amino-5-trifluoromethyl-pyridin-3-yl)-1-(1-isopropyl-3-methyl-1H-pyrazol-4-yl)-3-methyl-1,3-dihydro-imidazo[4,5-c]quinolin-2-one] | > 8.30 | 8.40 | 8.15 | 7.80 | 7.92 |
| Cc1noc(C)c1-n1c(=O)n(C)c2cnc3ccc(-c4cnc(N)c(C(F)(F)F)c4)cc3c21 [Example 25.5, 8-(6-Amino-5-trifluoromethyl-pyridin-3-yl)-1-(3,5-dimethyl-isoxazol-4-yl)-3-methyl-1,3-dihydro-imidazo[4,5-c]quinolin-2-one] | 7.01 | 8.00 | 6.94 | 7.52 | 7.52 |
| Cc1nn(C)cc1-n1c(=O)n(C)c2cnc3ccc(-c4cncnc4)cc3c21 [Example 26, 1-(1,3-Dimethyl-1H-pyrazol-4-yl)-3-methyl-8-pyrimidin-5-yl-1,3-dihydro-imidazo[4,5-c]quinolin-2-one] | 6.80 | 6.47 | 6.65 | 6.29 | 6.99 |
| Cc1nn(C)cc1-n1c(=O)n(C)c2cnc3ccc(-c4cc(O)cc(C(F)(F)F)c4)cc3c21 [Example 34, 1-(1,3-Dimethyl-1H-pyrazol-4-yl)-8-(3-hydroxy-5-trifluoromethyl-phenyl)-3-methyl-1,3-dihydro-imidazo[4,5-c]quinolin-2-one] | 6.86 | 8.15 | 6.82 | 7.82 | 8.15 |
| Cc1nn(C)cc1-n1c(=O)n(C)c2cnc3ccc(-c4cnc5[nH]ccc5c4)cc3c21 [Example 36, 1-(1,3-dimethyl-1H-pyrazol-4-yl)-3-methyl-8-(1H-pyrrolo[2,3-b]pyridin-5-yl)-1,3-dihydro-imidazo[4,5-c]quinolin-2-one] | 8.30 | 7.62 | 8.22 | 7.49 | 8.05 |
| CNC(=O)c1ccc(-c2ccc3ncc4c(c3c2)n(-c2cn(C)nc2Cl)c(=O)n4C)cc1 [Example 43.2, 4-[1-(3-Chloro-1-methyl-1H-pyrazol-4-yl)-3-methyl-2-oxo-2,3-dihydro-1H-imidazol[4,5-c]quinolin-8-yl]-N-methyl-benzamide] | 8.22 | 7.47 | > 8.30 | 7.25 | 8.10 |
| CCCOc1ccc(-c2ccc3ncc4c(c3c2)n(-c2cn(C)nc2C)c(=O)n4C)cn1 [Example 55, 1-(1,3-Dimethyl-1H-pyrazol-4-yl)-3-methyl-8-(6-propoxy-pyridin-3-yl)-1,3-dihydro-imidazo[4,5-c]quinolin-2-one] | 7.70 | 6.88 | 7.68 | 6.02 | 7.25 |
| CCOc1cccc(-c2ccc3ncc4c(c3c2)n(-c2cn(C)nc2C)c(=O)n4C)c1 [Example 57, 1-(1,3-Dimethyl-1H-pyrazol-4-yl)-8-(3-ethoxy-phenyl)-3-methyl-1,3-dihydro-imidazo[4,5-c]quinolin-2-one] | 7.29 | 6.67 | 6.97 | 6.67 | 7.42 |
